Data on 1 compound can be found in patent publication US10660910B2, “Use of sedoheptulose for prevention or treatment of inflammation” (C7 SUGAR GMBH, priority 2013, dated 2020).

Test [1] concerns LPS-induced activated primary macrophages. Description: LPS-induced cytokine secretion by bone marrow derived macrophages (ELISA). Type of test: cell-based, mouse. As to conditions: LPS 100 ng/ml, GFS vs GF media. On the procedure: FIG. 3: (A-E) Primary human adipocytes were obtained by differentiation of the stromal vascular cell fraction in the presence of glucose and fructose (GF, 1.5 g/L of each sugar; total carbohydrates 3 g/L) or sedoheptulose supplemented media, which was termed GFS (1 g/L of each sugar; total carbohydrates 3 g/L), for eight days. Subsequently mRNA levels of (A) CARKL, (B) adiponectin and (C) uncoupling protein 1 (UCP-1) was assessed by RT-PCR and compared between the groups. (D) Cellular oxygen consumption rates (OCR) and (E) extracellular acidification rates (ECAR) of adipocytes were recorded in the presence of indicated carbohydrate-mix (mean+/−S.D., n=9-11). […] Secretion of (K) TNFa and (L) IL-6 cytokines over the period of two days was measured by ELISA in the supernatant of bone marrow derived macrophages. LPS-induced (100 ng/ml) secretion of (M) TNFa 2 hrs after activation and (N) IL-6 6 hrs after activation in the respective media by macrophages was also measured by ELISA. […]
(An ELISA detects its analyte on a solid surface through an enzyme-linked reagent.)

The target of test [2] is T1, recombinant sedoheptulose kinase (CARKL) (Homo sapiens, UniProt Q9UHJ6).
T1 construct: made in house; host or cells: E. coli
T1 sequence (Q9UHJ6 1-478): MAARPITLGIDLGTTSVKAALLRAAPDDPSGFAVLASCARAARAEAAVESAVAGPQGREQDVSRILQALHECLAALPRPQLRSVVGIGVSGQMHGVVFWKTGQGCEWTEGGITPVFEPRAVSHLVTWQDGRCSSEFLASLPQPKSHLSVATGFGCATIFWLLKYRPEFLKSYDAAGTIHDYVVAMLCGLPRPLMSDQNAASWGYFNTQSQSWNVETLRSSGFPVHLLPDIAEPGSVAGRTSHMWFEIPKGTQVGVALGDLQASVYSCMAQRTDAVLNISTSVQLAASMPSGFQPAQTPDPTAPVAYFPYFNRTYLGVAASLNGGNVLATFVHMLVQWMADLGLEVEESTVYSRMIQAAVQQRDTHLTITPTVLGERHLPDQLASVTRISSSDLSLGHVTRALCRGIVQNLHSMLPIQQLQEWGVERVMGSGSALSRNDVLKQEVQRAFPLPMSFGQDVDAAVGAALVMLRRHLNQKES
The experiment in a line: Sedoheptulose kinase assay (ADP Quest, ADP formation). Type of test: biochemical. To be noted: constant amount of recombinant CARKL, constant ATP (150 μM), increased doses of sedoheptulose, FIG. 4A. The method, then: FIG. 4: In an in vitro kinase assay, which employs ADP formation as activity readout, the sedoheptulose turnover rate at constant ATP (150 μM) concentration was enhanced either by (A) increasing sedoheptulose concentration or (B) by increasing the amount of the rate-limiting enzyme sedoheptulose kinase (CARKL). (C-E) Hepatocytes from wilt-type (WT) and sedoheptulose kinase CARKL overexpressing mice were pre-cultured for two days in GFS containing media before basal (C) ECAR and (D) OCR was recorded of these cells. (E) Hepatocytes from both genetic lineages (CARKL and WT controls) were cultivated in GF or GFS containing media and then pre-starved (no-carbohydrates) for 1 h to measure glucose-induced ECAR after the addition of glucose to reach a final concentration of 1 g/L in the culture media mean+/−S.D., n=7-11). As metabolic in vivo indicators (F) the respiratory quotient (RQ) and (G) energy expenditure (EE, kcal/day/kg^0.75) per activity by indirect calorimetry were determined and compared CARKL to wild-type (WT) littermates during day (8 am to 4 pm) and night (8 pm to 4 am). Data represent mean values, n=3, +/−SD. […] Blood glucose was measured before the injection (control) and 15, 30, 45 and 60 minutes after injection and graphed as relative value in % of control. […]

The structures appear in SMILES notation.

Turning to `O=C(CO)[C@@H](O)[C@H](O)[C@H](O)[C@H](O)CO` [sedoheptulose, Sedoheptulose], the “reduction of LPS-induced TNFa secretion” value in test [1] (2 hrs after activation, FIG. 3M) was “approximately 40%”. For the same compound, the “LPS-induced IL-6 secretion” value in test [1] (6 hrs after activation, FIG. 3N) is recorded as “comparable levels as GF treated macrophages”. In addition, the “sedoheptulose turnover rates as measured by ADP formation” value in test [2] was “enhanced”.
